Laboratory results published in patent publication US12454506B2, “Benzoate derivatives” (ZHEJIANG YUEJIA PHARMACEUTICALS CO., LTD, priority 2022, dated 2025).

What was measured:
[1] = Solubility in purified water; assay type: physicochemical; conditions: thermodynamic from solid, compound added stepwise to 2 mL until hypersaturated or 2.0 g added
Method: About […] of the compound (A or B or C) to be tested was weighed and placed into a 10 mL sample tube, 2 mL of purified water was added, and the mixture was mixed well. In case of complete dissolution, about […] of the compound to be tested was replenished continuously, and the mixture was mixed well until a hypersaturated state was reached or the compound to be tested was added to 2.0 g. If the compound to be tested was added to […] and is still completely dissolved, the solubility of the compound to be tested in water was recorded as >1.0 g/mL.

[2] = test system: inflammatory factor MCP-1 mRNA in H9c2 cells; test: TNF-α-induced H9c2 cell inflammation model, MCP-1 mRNA by RT-PCR; assay type: cell-based, rat; conditions: 2 h pre-incubation, 10 ng/mL TNF-α for 1 h, compounds A and C 5/1/0.2 mM, compound B 3/1/0.2 mM, FIG. 8
Method: The pH value was adjusted to 7.2 with 1 M HCl, and ultrapure water was used to reach the constant volume of 1 L. Finally, the medium was filtered into a sterile container by membrane filtration using a 0.22 m constant-volume filter. (After filtration, the pH value might rise by 0.1 to 0.3 units) • 1.3 Formulation of positive control drug: a dexamethasone solution: […] of dexamethasone was added to 5 mL of DMSO and shaken for dissolution. 1000×solution (10 mM) was obtained. The solution was aliquoted and stored in a refrigerator at −20° C. • 1.4 Formulation of test sample solution: […]
Compound A/compound B/compound C: the test sample was weighed at an appropriate mass and dissolved in DMSO to formulate a solution with a final concentration of 1 M, and the solution was aliquoted and then stored at −20° C. • 1.5 Penicillin/streptomycin biantibiotics solution: 8 million units/vial penicillin plus 40 mL of ultrapure water were mixed well, 1 g/vial streptomycin plus 50 mL of ultrapure water were mixed well, the two mixtures were mixed at a volume ratio of 1:1 to obtain 100×penicillin-streptomycin biantibiotics solution (containing 100,000 units/mL penicillin and 10 mg/mL streptomycin). After filtration through a 0.22 m sterile microfiltration membrane, the solution was aliquoted at 10 mL/tube, and stored in a refrigerator at −20° C. • 1.6 Formulation of buffer solution: • PBS: […] of NaCl, […] of KCl, […] of Na2HPO4 and […] of KH2PO4 were respectively weighed and placed in a 1 L volumetric flask; ultrapure water was added to 900 mL; the pH was adjusted to 7.2 with concentrated hydrochloric acid; and the volume was finalized to 1 L. The mixture was stored at room temperature. • 2. […]

Row | SMILES | solubility [1] | inhibition of the elevation of the mRNA level of the inflammatory factor MCP-1 [2]
1 | CCN(CC)CCOC(=O)c1ccccc1OC(=O)CCl [compound B] | > 1000 mg/mL | dose-dependent inhibition
2 | CC[N+]([O-])(CC)CCOC(=O)c1ccccc1OC(C)=O [compound A] | > 1000 mg/mL | dose-dependent inhibition
3 | CCN(CC)CCOC1(C)OC(=O)c2ccccc2O1 (stereo not drawn) [compound C] | > 1000 mg/mL | dose-dependent inhibition
